Measured values: PMC9616048, “Thermal proteome profiling reveals Haemonchus orphan protein HCO_011565 as a target of the nematocidal small molecule UMW-868” (Frontiers in Pharmacology, 2022)

Columns and labels:
[1] = tested on: HCO_014287; assay: Thermal proteome profiling (TPP); type: binding, Haemonchus contortus; conditions: UMW-868 at 50 μM, xL3 protein extract, 37–67°C, versus PBS control
Excerpt: (§1) TPP is an advanced, multiplexed mass-spectrometry method that allows the unbiased identification or detection of drug targets ([Savitski et al., 2014]; [Perrin et al., 2020]; [Mateus et al., 2022]); it relies on the thermostability of protein-drug interactions to identify potential target protein(s) through denaturation profiles (melting curves) upon heat treatment ([Childs et al., 2019]), and has proven capacity to specifically identify targets of anti-cancer drugs or drug candidates ([Savitski et al., 2014]; [Perrin et al., 2020]; [Mateus et al., 2022]). […] The protein concentration in the supernatant was measured using a BCA Protein Assay Kit (Thermo Fisher Scientific), adjusted to 2 mg/ml and divided into four 250 μl aliquots/replicates (each containing 500 μg protein). • (ii) Incubation with compound (UMW-868), and temperature profile: Of the four 250 µl aliquots of xL3 proteins, two (i.e., test-samples) were each incubated with an equal volume of compound (UMW-868 at 50 μM), and two (control-samples) with an equal volume of PBS (pH 7.0) for 30 min at 23°C. […]

[2] = tested on: HCO_011565; assay: Thermal proteome profiling (TPP); type: binding, Haemonchus contortus; conditions: UMW-868 at 50 μM, xL3 protein extract, 37–67°C, versus PBS control
Excerpt: as §1

SMILES: CCCc1ccc(-c2nc(-c3cccs3)no2)cc1 [UMW-868, 5-(4-propylphenyl)-3-(2-thienyl)-1,2,4-oxadiazole]
- thermostability of protein in presence of compound [1]: highest, statistically significant thermostability
- thermostability of protein in presence of compound [2]: highest, statistically significant thermostability
